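Tested at 5 concentrations; 48 h exposure; 96-well plates; endpoints linearly interpolated, else capped at highest concentration. GI50 is the concentration that inhibits growth by half.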 The source made the active and inactive calls. Rule as the data show it: active = GI50 up to about 1.1 µM and inactive = higher.
Experiments:
Test in all cases: inhibition of tumour cell growth, NCI panel, 48 h
[1] = test system: CCRF-CEM
[2] = test system: NCI/ADR-RES
[3] = test system: MDA-MB-435
[4] = test system: Malme-3M
[5] = test system: SNB-75
[6] = test system: DU-145
[7] = test system: MDA-N
[8] = test system: M14
[9] = test system: A498
[10] = test system: NCI-H460
[11] = test system: UO-31
[12] = test system: T47D
[13] = test system: HCT-15
[14] = test system: PC-3
[15] = test system: COLO 205
[16] = test system: SK-MEL-5

SMILES | GI50 [1] | GI50 [2] | GI50 [3] | GI50 [4] | GI50 [5] | GI50 [6] | GI50 [7] | GI50 [8] | GI50 [9] | GI50 [10] | GI50 [11] | GI50 [12] | GI50 [13] [µM] | GI50 [14] | GI50 [15] | GI50 [16]
NC1CNC(=O)c2c(Cl)sc(Cl)c21 (stereo unspecified) | > 10 µM (inactive) | > 100 µM (inactive) | > 100 µM (inactive) | > 100 µM (inactive) | > 100 µM (inactive) | > 100 µM (inactive) | > 100 µM (inactive) | > 100 µM (inactive) | > 100 µM (inactive) | > 100 µM (inactive) | > 100 µM (inactive) | > 100 µM (inactive) | > 100 | > 100 µM (inactive) | > 100 µM (inactive) | 
COc1ccc(OC)c2sc(N3C(=O)/C(=C/c4cccc([N+](=O)[O-])c4)N=C3c3ccccc3)nc12 | 24.9 µM (inactive) | 56 µM (inactive) | 23.9 µM (inactive) | > 100 µM (inactive) | 42.7 µM (inactive) | 68.4 µM (inactive) | 32.4 µM (inactive) | > 100 µM (inactive) | 57.8 µM (inactive) | 77.1 µM (inactive) | > 100 µM (inactive) | 22.3 µM (inactive) | 61.5 | 59.7 µM (inactive) | > 100 µM (inactive) | 49.4 µM (inactive)
NCCCC[C@H](N)C(=O)Nc1ccc(-c2nc3ccccc3s2)cc1Cl | 3.28 µM (inactive) | 16.5 µM (inactive) | 4.9 µM (inactive) | 15.1 µM (inactive) | 9.77 µM (inactive) | 6.78 µM (inactive) | 4.46 µM (inactive) | 3.55 µM (inactive) | 0.149 µM (active) | 0.271 µM (active) | 6.35 µM (inactive) | < 0.0478 µM (active) | 5.68 | 14.9 µM (inactive) | 4.91 µM (inactive) | 12.5 µM (inactive)
OC1(c2ccc(Cl)cc2)c2c(ccc3c2OCO3)C2=NCCN21 (stereo unspecified) | 37.9 µM (inactive) | > 100 µM (inactive) | 28.1 µM (inactive) | 1.23 µM (inactive) | 6.14 µM (inactive) | 97.7 µM (inactive) | 28.6 µM (inactive) | 16.6 µM (inactive) | 20.1 µM (inactive) | 40.6 µM (inactive) | 38.5 µM (inactive) | 31.7 µM (inactive) | 52.7 | 42.7 µM (inactive) | 18.3 µM (inactive) | 17.2 µM (inactive)
Cc1cc(S(=O)(=O)NC2=Nc3ccc(Cl)cc3C(c3ccccc3)N2)c(S)cc1Cl (stereo unspecified) | 57.8 µM (inactive) | > 100 µM (inactive) | > 100 µM (inactive) | > 100 µM (inactive) | > 100 µM (inactive) | > 100 µM (inactive) | > 100 µM (inactive) | > 100 µM (inactive) | > 100 µM (inactive) | 8.79 µM (inactive) | 46 µM (inactive) | 9.02 µM (inactive) | 67.1 | 1.84 µM (inactive) | > 100 µM (inactive) | > 100 µM (inactive)
O=C(c1ccco1)C1CC(c2ccc3ccccc3c2O)=NN1 (stereo unspecified) | 16.8 µM (inactive) | 91.4 µM (inactive) | 56.6 µM (inactive) | > 100 µM (inactive) | > 100 µM (inactive) | > 100 µM (inactive) | 59.4 µM (inactive) | 54.8 µM (inactive) | > 100 µM (inactive) | > 100 µM (inactive) | 89.7 µM (inactive) | 92.7 µM (inactive) | 50.6 | 70.8 µM (inactive) | 66.1 µM (inactive) | 89.5 µM (inactive)
CN(C)C(=O)OC1=CC2CCC(C1)N2C (stereo unspecified) | 28.8 µM (inactive) | 91.6 µM (inactive) | > 100 µM (inactive) | > 100 µM (inactive) | > 100 µM (inactive) | > 100 µM (inactive) | > 100 µM (inactive) | 79.1 µM (inactive) | > 100 µM (inactive) | 32.4 µM (inactive) | 52.5 µM (inactive) | > 100 µM (inactive) | 48.3 | 97.5 µM (inactive) | > 100 µM (inactive) | > 100 µM (inactive)
